From PubChem BioAssay (NCI)
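Five concentrations, 48 hours, 96-well plates. At the GI50, growth is halved. TGI denotes the concentration required for complete inhibition of growth.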

Legend:
Experiment in all cases: NCI tumour cell line growth inhibition, 48 h
LOX IMVI melanoma = test system: LOX IMVI melanoma
RPMI-8226 leukemia = test system: RPMI-8226 leukemia
MCF7 breast = test system: MCF7 breast
U251 CNS = test system: U251 CNS
SK-OV-3 ovarian = test system: SK-OV-3 ovarian
MDA-MB-231 breast = test system: MDA-MB-231 breast
EKVX NSCLC = test system: EKVX NSCLC
786-0 renal = test system: 786-0 renal
RXF 393 renal = test system: RXF 393 renal
OVCAR-3 ovarian = test system: OVCAR-3 ovarian
A549 NSCLC = test system: A549 NSCLC
HS 578T breast = test system: HS 578T breast
NCI-H226 lung = test system: NCI-H226 lung
NCI-H460 lung = test system: NCI-H460 lung
UACC-62 melanoma = test system: UACC-62 melanoma
CAKI-1 renal = test system: CAKI-1 renal
MDA-MB-468 breast = test system: MDA-MB-468 breast
M14 melanoma = test system: M14 melanoma
HCT-116 colon = test system: HCT-116 colon
SR leukemia = test system: SR leukemia
SW-620 colon = test system: SW-620 colon
HOP-62 NSCLC = test system: HOP-62 NSCLC
UO-31 renal = test system: UO-31 renal
NCI/ADR-RES ovarian = test system: NCI/ADR-RES ovarian
SNB-19 CNS = test system: SNB-19 CNS
ACHN renal = test system: ACHN renal
CCRF-CEM leukemia = test system: CCRF-CEM leukemia
OVCAR-5 ovarian = test system: OVCAR-5 ovarian
NCI-H522 lung = test system: NCI-H522 lung
UACC-257 melanoma = test system: UACC-257 melanoma
BT-549 breast = test system: BT-549 breast
A498 renal = test system: A498 renal
NCI-H23 lung = test system: NCI-H23 lung
HL-60(TB) leukemia = test system: HL-60(TB) leukemia
DU-145 prostate = test system: DU-145 prostate
SF-539 CNS = test system: SF-539 CNS
K-562 leukemia = test system: K-562 leukemia
MOLT-4 leukemia = test system: MOLT-4 leukemia
SK-MEL-28 melanoma = test system: SK-MEL-28 melanoma
SN12C renal = test system: SN12C renal
IGROV1 ovarian = test system: IGROV1 ovarian
OVCAR-8 ovarian = test system: OVCAR-8 ovarian
HT29 colon = test system: HT29 colon
MALME-3M melanoma = test system: MALME-3M melanoma
PC-3 prostate = test system: PC-3 prostate
HCT-15 colon = test system: HCT-15 colon
SK-MEL-5 melanoma = test system: SK-MEL-5 melanoma
SK-MEL-2 melanoma = test system: SK-MEL-2 melanoma
SF-268 CNS = test system: SF-268 CNS
COLO 205 colon = test system: COLO 205 colon
SF-295 CNS = test system: SF-295 CNS
MDA-MB-435 = test system: MDA-MB-435
OVCAR-4 ovarian = test system: OVCAR-4 ovarian
KM12 colon = test system: KM12 colon
TK-10 renal = test system: TK-10 renal
HCC-2998 colon = test system: HCC-2998 colon

C=C1CC[C@H](C(=C)C)[C@H]2C=C(C)C(=O)C3=C(C(=O)[C@@](C)(O)C3)[C@H]12
GI50 (LOX IMVI melanoma): 369 nM
TGI (LOX IMVI melanoma): 1500 nM
GI50 (RPMI-8226 leukemia): 1160 nM
TGI (RPMI-8226 leukemia): 3420 nM
GI50 (MCF7 breast): 639 nM
TGI (MCF7 breast): 2020 nM
GI50 (U251 CNS): 1090 nM
TGI (U251 CNS): 2380 nM
GI50 (SK-OV-3 ovarian): 1870 nM
TGI (SK-OV-3 ovarian): 3830 nM
GI50 (MDA-MB-231 breast): 1390 nM
TGI (MDA-MB-231 breast): 2740 nM
GI50 (EKVX NSCLC): 1700 nM
TGI (EKVX NSCLC): 3300 nM
GI50 (786-0 renal): 1750 nM
TGI (786-0 renal): 3170 nM
GI50 (RXF 393 renal): 1510 nM
TGI (RXF 393 renal): 2990 nM
GI50 (OVCAR-3 ovarian): 1200 nM
TGI (OVCAR-3 ovarian): 2480 nM
GI50 (A549 NSCLC): 1270 nM
TGI (A549 NSCLC): 3000 nM
GI50 (HS 578T breast): 3030 nM
TGI (HS 578T breast): 17700 nM
GI50 (NCI-H226 lung): 1470 nM
TGI (NCI-H226 lung): 3060 nM
GI50 (NCI-H460 lung): 1480 nM
TGI (NCI-H460 lung): 4040 nM
GI50 (UACC-62 melanoma): 1230 nM
TGI (UACC-62 melanoma): 2480 nM
GI50 (CAKI-1 renal): 1570 nM
TGI (CAKI-1 renal): 2980 nM
GI50 (MDA-MB-468 breast): 528 nM
TGI (MDA-MB-468 breast): 1940 nM
GI50 (M14 melanoma): 1340 nM
TGI (M14 melanoma): 2820 nM
GI50 (HCT-116 colon): 801 nM
TGI (HCT-116 colon): 2070 nM
GI50 (SR leukemia): 324 nM
TGI (SR leukemia): 2060 nM
GI50 (SW-620 colon): 1380 nM
TGI (SW-620 colon): 3110 nM
GI50 (HOP-62 NSCLC): 1760 nM
TGI (HOP-62 NSCLC): 3270 nM
GI50 (UO-31 renal): 1120 nM
TGI (UO-31 renal): 2320 nM
GI50 (NCI/ADR-RES ovarian): 1950 nM
TGI (NCI/ADR-RES ovarian): 5520 nM
GI50 (SNB-19 CNS): 1650 nM
TGI (SNB-19 CNS): 3010 nM
GI50 (ACHN renal): 1480 nM
TGI (ACHN renal): 2800 nM
GI50 (CCRF-CEM leukemia): 2260 nM
TGI (CCRF-CEM leukemia): 5250 nM
GI50 (OVCAR-5 ovarian): 1520 nM
TGI (OVCAR-5 ovarian): 2980 nM
GI50 (NCI-H522 lung): 1180 nM
TGI (NCI-H522 lung): 2530 nM
GI50 (UACC-257 melanoma): 1350 nM
TGI (UACC-257 melanoma): 2760 nM
GI50 (BT-549 breast): 1450 nM
TGI (BT-549 breast): 2770 nM
GI50 (A498 renal): 3560 nM
TGI (A498 renal): 8500 nM
GI50 (NCI-H23 lung): 1630 nM
TGI (NCI-H23 lung): 3260 nM
GI50 (HL-60(TB) leukemia): 853 nM
TGI (HL-60(TB) leukemia): 3760 nM
GI50 (DU-145 prostate): 1230 nM
TGI (DU-145 prostate): 2480 nM
GI50 (SF-539 CNS): 1410 nM
TGI (SF-539 CNS): 2710 nM
GI50 (K-562 leukemia): 611 nM
TGI (K-562 leukemia): 13100 nM
GI50 (MOLT-4 leukemia): 1210 nM
TGI (MOLT-4 leukemia): 3750 nM
GI50 (SK-MEL-28 melanoma): 1630 nM
TGI (SK-MEL-28 melanoma): 2990 nM
GI50 (SN12C renal): 1190 nM
TGI (SN12C renal): 2550 nM
GI50 (IGROV1 ovarian): 1280 nM
TGI (IGROV1 ovarian): 2880 nM
GI50 (OVCAR-8 ovarian): 1460 nM
TGI (OVCAR-8 ovarian): 3690 nM
GI50 (HT29 colon): 1070 nM
TGI (HT29 colon): 3230 nM
GI50 (MALME-3M melanoma): 1470 nM
TGI (MALME-3M melanoma): 2880 nM
GI50 (PC-3 prostate): 1670 nM
TGI (PC-3 prostate): 3330 nM
GI50 (HCT-15 colon): 349 nM
TGI (HCT-15 colon): 1400 nM
GI50 (SK-MEL-5 melanoma): 1480 nM
TGI (SK-MEL-5 melanoma): 2830 nM
GI50 (SK-MEL-2 melanoma): 1460 nM
TGI (SK-MEL-2 melanoma): 2880 nM
GI50 (SF-268 CNS): 1580 nM
TGI (SF-268 CNS): 3360 nM
GI50 (COLO 205 colon): 1740 nM
TGI (COLO 205 colon): 3250 nM
GI50 (SF-295 CNS): 1480 nM
TGI (SF-295 CNS): 2840 nM
GI50 (MDA-MB-435): 1550 nM
TGI (MDA-MB-435): 3140 nM
GI50 (OVCAR-4 ovarian): 1550 nM
TGI (OVCAR-4 ovarian): 2990 nM
GI50 (KM12 colon): 1460 nM
TGI (KM12 colon): 3270 nM
GI50 (TK-10 renal): 1790 nM
TGI (TK-10 renal): 3220 nM
GI50 (HCC-2998 colon): 1280 nM
TGI (HCC-2998 colon): 2540 nM
